Test results reported in ChEMBL document CHEMBL3871304, “Novel benzothiazine-piperazine derivatives by peptide-coupling as potential anti-proliferative agents” (2017).

Assays:
Assay type in all cases: functional
[1] = Growth inhibition of human HeLa cells after 48 hrs by SRB assay
[2] = Growth inhibition of human MiaPaCa cells after 48 hrs by SRB assay; settings: MIA PaCa-2, 48 h
[3] = Growth inhibition of human MDA-MB-231 cells after 48 hrs by SRB assay; settings: MDA-MB-231, 48 h
[4] = Growth inhibition of human IMR32 cells after 48 hrs by SRB assay; settings: IMR-32, 48 h

Compound	GI50 ([1]; read-out: GI50)	GI50 ([1]; read-out: pGI50 (converted))	GI50 [2]	GI50 [3]	GI50 [4]
O=C(CCN1C(=O)CSc2ccccc21)NCCCN1CCN(c2ccccc2)CC1	2.17 µM	2.19 µM	> 100 µM	< 0.01 µM	> 100 µM
O=C(CCN1C(=O)CSc2ccccc21)N1CCN(c2ccc(F)cc2)CC1	5.4 µM	5.37 µM	> 100 µM	2.2 µM	10 µM
COc1ccccc1N1CCN(C(=O)CCN2C(=O)CSc3ccccc32)CC1	11.9 µM	12 µM	34.9 µM	6.6 µM	> 100 µM
O=C(CCN1C(=O)CSc2ccccc21)NCCCN1CCC(Cc2ccccc2)CC1	56.2 µM	56.2 µM	> 100 µM	27.6 µM	1.5 µM
O=C(CCN1C(=O)CSc2ccccc21)N1CCN(c2ccccc2F)CC1	61 µM	61.7 µM	> 100 µM	1.6 µM	> 100 µM
O=C(CCN1C(=O)CSc2ccccc21)NCCCN1CCN(c2ccc(C(F)(F)F)cc2)CC1	5.7 µM	5.75 µM	> 100 µM	20.4 µM	1.4 µM
CC(C)(C)OC(=O)N1CCN(C(=O)CCN2C(=O)CSc3ccccc32)CC1	> 100 µM	100 µM	51.5 µM	> 100 µM	> 100 µM
O=C(CCN1C(=O)CSc2ccccc21)NCCCN1CCSCC1	0.12 µM	0.12 µM	83.3 µM	0.63 µM	0.82 µM
O=C(CCN1C(=O)CSc2ccccc21)N1CCSCC1	18.5 µM	18.6 µM	> 100 µM	6 µM	21.7 µM
O=C(CCN1C(=O)CSc2ccccc21)NCCCN1CCN(c2ccc([N+](=O)[O-])cc2)CC1	> 100 µM	100 µM	> 100 µM	> 100 µM	0.46 µM
O=C(CCN1C(=O)CSc2ccccc21)N1CCN(c2ccc([N+](=O)[O-])cc2)CC1	8.4 µM	8.32 µM	68.1 µM	5.6 µM	0.34 µM
O=C(CCN1C(=O)CSc2ccccc21)N1CCN(c2ccccc2)CC1	41.9 µM	41.7 µM	> 100 µM	5.4 µM	< 0.01 µM
O=C(CCN1C(=O)CSc2ccccc21)N1CCC(Cc2ccccc2)CC1	17.7 µM	17.8 µM	56.8 µM	3.8 µM	0.1 µM
COc1ccccc1N1CCN(CCCNC(=O)CCN2C(=O)CSc3ccccc32)CC1	0.97 µM	0.977 µM	59.2 µM	2 µM	> 100 µM
O=C(CCN1C(=O)CSc2ccccc21)NCCCN1CCN(c2ccccc2F)CC1	1.4 µM	1.41 µM	> 100 µM	4.6 µM	1.4 µM
O=C(CCN1C(=O)CSc2ccccc21)N1CCN(c2ccc(C(F)(F)F)cc2)CC1	4.2 µM	4.17 µM	> 100 µM	1 µM	46.4 µM
COc1cccc2c1C(=O)c1c(O)c3c(c(O)c1C2=O)C[C@@](O)(C(=O)CO)C[C@@H]3O[C@H]1C[C@H](N)[C@H](O)[C@H](C)O1 [DOXORUBICIN]	0.083 µM	0.0832 µM	0.095 µM	0.073 µM	0.025 µM
CC(=O)O[C@H]1C(=O)[C@@]2(C)[C@H]([C@H](OC(=O)c3ccccc3)[C@]3(O)C[C@H](OC(=O)[C@H](O)[C@@H](NC(=O)c4ccccc4)c4ccccc4)C(C)=C1C3(C)C)[C@]1(OC(C)=O)CO[C@@H]1C[C@@H]2O [PACLITAXEL]	0.039 µM	0.0389 µM	0.06 µM	0.092 µM	0.086 µM
